Measurements published in article PMC10648942, “Safety and pharmacokinetics of SPR206 in subjects with varying degrees of renal impairment” (Antimicrobial Agents and Chemotherapy, 2023).
Where two headings read alike, the source gives them in different places. Bridge positions count the residues as written; N and C are the ends. Square brackets hold non-standard residues; d marks the D form. Peptide text beside a SMILES is read from it. * marks the point of attachment. X1 = NC[C@@H](CC(=O)*)c1cccc(Cl)c1; Dab = NCC[C@H](N)C(=O)O; Dap = NC[C@H](N)C(=O)O

How the values were obtained:
clinical = experiment: clinical; design: species or system human; AUC0–∞ LS GMR vs healthy subjects, range / AUC0–last LS GMR vs healthy subjects, range / AUC0−8, LS GMR (90% CI): unit not given beside the values; conditions: in vivo
Source text: This was a Phase 1, open-label study to assess the safety, tolerability, and PK of a single 100-mg IV dose of SPR206 administered to healthy adults with normal renal function and those with varying degrees of RI including subjects with ESRD on HD. Subjects were screened within 28 days prior to dosing. Study drug administration occurred on day 1 for Cohorts 1–4 (normal renal function, mild RI, moderate RI, and severe RI) and on days 1 and 5 for Cohort 5 (ESRD on HD). Subjects remained confined to the clinical study unit from day −1 (1 day prior to study drug administration) until completion of the scheduled study procedures at the end of confinement on day 4 (Cohorts 1–4) or on day 7 (Cohort 5). A follow-up safety visit occurred 7 to 14 calendar days after the last dose for all subjects.
On the morning of day 1, subjects in Cohorts 1–4 received a single 100-mg IV dose of […] infused over 1 h. Subjects in Cohort 5 received a single IV dose of SPR206 within 2 h (±1 h) after completion of regularly scheduled HD on day 1 (Period 1) and a second dose approximately 1 h prior to their regularly scheduled HD on day 5 (Period 2). Details of the HD procedure are provided in the Supplement.
(§1) Subjects in Cohorts 1–4 had serial blood samples collected to determine plasma SPR206 concentrations at pre-dose (0) and 0.5, 1, 1.25, 1.5, 2, 2.5, 3, 5, 8, 10, 12, 18, 24, and 36 h post-dose. Total voided urine was collected over a 2-h interval from −2 to 0 h (pre-dose) and at 0–4, 4–8, 8–12, 12–24, and 24–36 h post-dose. For subjects in Cohort 5, blood samples were collected on dosing days 1 and 5 pre-dose (0 h) and 0.5, 1, 1.25, 1.5, 2, 2.5, 3, 5, 8, 10, 12, 18, 24, and 36 h after dosing. On day 5 (Period 2), the 1-h post-dose sample was collected immediately prior to initiation of dialysis, and the 5-h post-dose sample was collected 10 min prior to the end of dialysis. The 36-h post-dose samples on days 3 and 7 were collected prior to the next dialysis session if scheduled on the same day. In Period 2, blood samples were collected from both the inflow (arterial) and outflow (venous) lines pre-dialysis and at approximately 1, 2, 3, and 4 h after initiation of HD on day 5. If the HD session was shorter or longer than 4 h after the start of HD, a final sample was collected at the end of dialysis. Plasma and urine samples were assayed for SPR206 using a validated liquid chromatography tandem mass spectrometry method (QPS, LLC, Newark, DE, USA). For plasma, the assay range was 50 to 50,000 ng/mL, and for urine, the range was 100 to 50,000 ng/mL. In plasma, the intraday precision (% coefficient of variation) ranged from 1.3% to 7.7%, and the accuracy (% relative error) ranged from 1.6% to 6.0%. In urine, the intraday precision (% coefficient of variation) ranged from 1.7% to 7.5%, and the accuracy (% relative error) ranged from −4.8% to 7.3%. Additional details are provided in the Supplement.
For all cohorts, the following PK parameters were calculated using noncompartmental methods based on plasma SPR206 concentrations: C max, T max, AUC0−last, AUC0−8, AUC0−∞, terminal elimination half-life (t 1/2), CL, and volume of distribution at the terminal phase (V Z). For Cohort 5, additional parameters were extraction ratio (ER), estimated hemodialysis clearance, and amount of the dose removed by hemodialysis. The ER was calculated as 100 × [(CA − CV)/CA], where CA and CV were predialyzer and postdialyzer paired drug concentrations at the arterial and venous sites. SPR206 clearance during HD (CLHD) was calculated using the following equation: CLHD = Q × ER, where Q was the known blood flow through the dialyzer. The amount of SPR206 removed by dialysis (XHD) was estimated by multiplying the AUC during dialysis [i.e., AUC from the beginning of dialysis to end of dialysis (AUCon–HD)] by CLHD: XHD = AUCon–HD × CLHD.
Mean and individual plasma concentration-time curves were tabulated for each cohort (and for Cohort 5 subjects by period). […]

[1] = human; cited from earlier work
[2] = rat, in vivo; cited from earlier work
[3] = human, in vivo; cited from earlier work
[4] = design: species or system human; conditions: in vivo
Method: as §1, with “Supplement. Urine PK parameters included Aet, Ae%, Aeu, CLR, Fe, and Feu.” for “Supplement.”

[5] = Safety/tolerability (TEAEs, laboratory, ECG), Phase 1 renal impairment study; format: in vivo, human
[6] = design: species or system human; AUC0-8 vs eGFR regression, Coefficient (95% CI) / AUC0-last vs eGFR regression, Intercept / AUC0-last vs eGFR regression, Coefficient (95% CI) / AUC0-∞ vs eGFR regression, Intercept / AUC0-∞ vs eGFR regression, Coefficient (95% CI) / AUC0-8 vs eGFR regression, Intercept: unit not given beside the values; conditions: in vivo
Method: To model the relationship between renal function and PK parameters, a linear regression analysis was performed using log-transformed values of AUC0–8, AUC0–last, AUC0–∞, C max, and CL, which were dependent variables. The independent variable to predict the PK parameters was eGFR after adjusting for baseline covariates (age, gender, race, and body weight). Parameter estimates, standard errors, confidence intervals (CIs), and P-values were presented.

kidney cell = conditions: cited from earlier work
[7] = human, in vivo, cited from earlier work
Acinetobacter species = system: Acinetobacter species; design: method as in doi:10.1093/ofid/ofac492.1306, doi:10.1093/ofid/ofac492.1307; conditions: Acinetobacter species clinical isolates; cited from earlier work
P. aeruginosa = system: P. aeruginosa; design: method as in doi:10.1093/ofid/ofac492.1306, doi:10.1093/ofid/ofac492.1307; conditions: P. aeruginosa clinical isolates; cited from earlier work
[8] = cited from earlier work
Enterobacterales = system: Enterobacterales; design: method as in doi:10.1093/ofid/ofac492.1306, doi:10.1093/ofid/ofac492.1307; conditions: Enterobacterales clinical isolates; cited from earlier work

Molecule: CC(C)C[C@@H]1NC(=O)[C@@H](Cc2ccccc2)NC(=O)[C@H](CCN)NC(=O)[C@@H](NC(=O)[C@H](CN)NC(=O)[C@@H](NC(=O)C[C@H](CN)c2cccc(Cl)c2)[C@@H](C)O)CCNC(=O)[C@H]([C@@H](C)O)NC(=O)[C@H](CCN)NC(=O)[C@H](CCN)NC1=O [SPR206] (X1-T[Dap][Dab][Dab][dF]L[Dab][Dab]T; lactam 3-C (inferred))
- AUC0–last greater than healthy subjects (clinical; human): 131%
- CL lower than healthy subjects (clinical; human): 75%
- time of peak plasma concentration (end of infusion) (clinical; human): 1 h
- AUC(0-t) (clinical; human, AUC0–8, LS GM (SE)): 21800 ng·h/mL
- AUC(0-t) (clinical; human, AUC0−8, LS GM (SE)): 17300 ng·h/mL
- Cmax (clinical; human, C max, LS GM (SE)): 5900 ng/mL
- Cmax (clinical; human, iv, C max, geometric mean (CV %)): 5900 ng/mL
- Cmax (clinical; human, mean peak concentration (C max)): ~6500 ng/mL
- AUC0–last LS GMR vs healthy subjects, range (clinical): 1.39-3.39
- AUC0–∞ LS GMR vs healthy subjects, range (clinical): 1.39-4.09
- AUC0−8, LS GMR (90% CI) (clinical): 0.59 (0.52, 0.67)
- C max LS GMR vs healthy subjects, range (clinical): 1.07-1.14
- CL LS GMR vs healthy subjects, range (clinical): 0.71-0.24
- mean AUC0–last greater in subjects with RI vs healthy subjects (clinical): 39-239%
- mean AUC0–last lower, dialyzed vs nondialyzed (clinical): 51%
- mean plasma CL lower vs healthy subjects (clinical): 29-76%
- Protein binding [1]: ≤ 12.8%
- kidney exposure compared with polymyxin B [2]: lower kidney exposure
- AUC0–8 [3]: 20100 ng·h/mL
- C max [3]: 4400 ng/mL
- mean CLR as % of total CL ([4]; human): 24.6%
- time up to which urine concentrations were quantifiable [4]: up to 36 h
- time within which SPR206 was excreted in urine [4]: ≤ 12 h
- deaths, treatment-related serious AEs, TEAEs leading to study discontinuation ([5]; all cohorts): No deaths, treatment-related serious AEs, or TEAEs leading to study discontinuation were reported
- TEAE headache, overall incidence ([5]; in vivo): 13.5%
- TEAE paresthesia, overall incidence ([5]; in vivo): 8.1%
- clinical laboratory results, ECG findings, physical examination ([5]; in vivo): No clinically significant abnormalities
- relation of the two serious (severe) TEAEs to study drug ([5]; in vivo): unrelated to study drug
- serum creatinine levels from screening through follow-up ([5]; in vivo): remained stable
- subjects whose TEAEs were mild ([5]; in vivo): 19 (51.4%) subjects (%)
- subjects with at least one TEAE ([5]; in vivo): 23 (62.2%) subjects (%)
- subjects with moderate TEAEs (infusion site phlebitis, drug hypersensitivity) leading to study drug discontinuation ([5]; in vivo): 5.4%
- subjects with treatment-related AEs ([5]; in vivo): 13 (35.1%) subjects (%)
- treatment-related adverse events, severity ([5]; in vivo): Mostly mild but no serious treatment-related adverse events were reported
- TEAE oral paresthesia, overall incidence ([5]; in vivo, po): 8.1%
- AUC0-8 vs eGFR regression, Coefficient (95% CI) [6]: −0.0063 (−0.0083, –0.0044)
- AUC0-8 vs eGFR regression, Intercept [6]: 3.5
- AUC0-last vs eGFR regression, Coefficient (95% CI) [6]: −0.0147 (−0.0168, –0.0125)
- AUC0-last vs eGFR regression, Intercept [6]: 4.5
- AUC0-∞ vs eGFR regression, Coefficient (95% CI) [6]: −0.0161 (−0.0190, –0.0131)
- AUC0-∞ vs eGFR regression, Intercept [6]: 4.6
- C max vs eGFR regression, Coefficient (95% CI) [6]: −0.0018 (−0.0040, 0.0005)
- C max vs eGFR regression, Intercept [6]: 2.0
- CL vs eGFR regression, Coefficient (95% CI) [6]: 0.0172 (0.0148, 0.0196)
- CL vs eGFR regression, Intercept [6]: 0.1
- kidney cell cytotoxicity compared with polymyxin B (kidney cell): lower kidney cell cytotoxicity
- AUC0–∞ ([7]; iv): 20400 ng·h/mL
- C max ([7]; iv): 5300 ng/mL
- total CL ([7]; iv): 5.0 L/h
- pharmacokinetic profile in a Phase 1 study [7]: dose-proportional
- tolerability in a Phase 1 study [7]: well tolerated

Molecule: colistin
- MIC90 (Acinetobacter species): 1 µg/mL
- MIC90 (P. aeruginosa): 1 µg/mL
- route of elimination ([8]; in vivo): eliminated primarily by non-renal mechanisms
- MIC90 (Enterobacterales): 0.5 µg/mL

Molecule: colistin methanesulfonate
- route of elimination ([8]; in vivo): eliminated predominantly by renal excretion

Molecule: polymyxin B
- route of elimination [8]: eliminated primarily by non-renal mechanisms
